# Measurements: patent publication US7744920B2, “Use of liposomal glucocorticoids for treating inflammatory states” (Hadasit Medical Research Services & Development Limited, priority 2004, dated 2010)
# “And” between values parts separate entries of the source, which are not always exact repeats. Identical values can stand only once.
# Assays:
# [1] = Loading efficiency of MPS into liposomes; assay type: physicochemical; conditions: HSPC:Chol:2000PEG-DSPE liposomes
# Procedure: A stock solution of methylprednisolone hemisuccinate sodium salt (MPS, the GC derivative) was dissolved in 5% dextrose (pH 7.2) to a concentration of ˜9 mg/ml and added to the preformed SSL dispersion after the calcium acetate gradient was established. MPS concentration was ˜9 mg/ml and phospholipid ˜32 mM phosphate.
# Loading was achieved by incubation of the components above for the desired time at 62° C. (above matrix lipid Tm). Liposomes were then cooled to 4° C. and dialyzed against 5% dextrose at 4° C. to remove acetate released during loading and to remove unloaded drug or alternatively unloaded drug was removed by the ion exchanger Dowex 1×400 mesh (Cl^− form).
# Loading efficiency is the ratio between MPS/phospholipid concentrations after and before loading. The quantification of MPS was done in an HPLC apparatus as described by Anderson, and Taphouse 1981 [Anderson B. D. and Taphouse. V. J Pharm Sci, 70:181-6 (1981)], quantification of phospholipid was done by modified Bartlet procedure [Shmeeda, H., et al. In: Methods in Enzymology “Liposomes”, (Düzgünes, N., ed.), 367:272-292 (2003)].
# [2] = Procedure: Surface tension was measured using μtrouge S (Kibron Inc., Helsinki Finland). A solution containing GC derivative (300 μL) was placed in the well after calibration and zeroing of the sensor using pure water and air. The measurement was performed at 26° C.
# [3] = test system: Adjuvant Arthritis (AA); test: Effect of SSL-MPS on AA at peak of disease; assay type: in vivo, Lewis rats; conditions: for AA score after the second injection at day 23: SSL-MPS and free-MPS 10 mg/kg BW on days 19, 23, Remicade 5 mg/kg on day 19; for clinical score immediately after the first injection: day 19, SSL-MPS and free-MPS 10 mg/kg BW, Remicade 5 mg/kg
# [4] = test system: Adjuvant Arthritis (AA); test: Treatment of Adjuvant Arthritis (AA), injections from day 10 after induction; assay type: in vivo, Lewis rats; conditions: 2 i.v. injections on days 10 and 14, 5 then 10 mg/kg BW (FIG. 7A)
# [5] = State of aggregation (turbidity) of MPS as function of pH; assay type: physicochemical
# Procedure: Aggregation of MPS was determined from the change in turbidity measured as intensity of light scattered at 90° to excitation beam using a spectrofluormeter under conditions that MPS lack absorbance (excitation and emission at the same wavelength Ex=600 nm Em=600 nm). There is a large increase in the light scattered by MPS solution/dispersion due to formation of aggregates.
# The intensity of scattered light (at 90° to the excitation), also defined as turbidity is proportional to concentration and to the size of the aggregates. [Zuidam, N. J. and Barenholz, Y., Biochim. Biophys. Acta 1368:115-128 (1998)]. The state of aggregation of MPS was tested in the following manner: To quartz cuvette MPS (2 ml) at concentration of ˜6.5mg/ml MPS was added. The solution was tittered with HCl (1.756 M) and light scattering using excitation and emission at (both at 600 nm with attenuation of 1%) and pH of the solution was monitored.
# [6] = Precipitation of MPS in calcium acetate solution; assay type: physicochemical; conditions: 600 mOsm Ca-acetate, 63° C, 5 mg/ml, 40 minutes
# Procedure: To 600 mOsm Ca-acetate solution at 63° C and at different pH points MPS was added at final concentration of 5 mg/ml, then mixed solution was incubated for 40 minutes after which the solution was centrifuged and the supernatant was analyzed using […].
# [7] = Partition coefficient (logD) by shake flask; assay type: physicochemical; conditions: FIG. 1B
# Procedure: Partition coefficient (logD) of some GC derivatives (which are amphipathic weak acids) was determined by the ‘shake flask’ as described [Samuni, A. M. and Barenholz, Y., Free Radicals Biol. Med. 22:1165-1174 (1997)].
# [8] = Stability of liposomal formulation upon storage at 4° C. (gel exclusion chromatography); assay type: physicochemical; conditions: encapsulated in liposome, storage at 4° C. for 14 months
# Procedure: The level of MPS released from SSL-MPS was determined by first separating the liposomes from free MPS using gel exclusion chromatography on Sepharose cross-linked CL-4B column using. Liposomes were eluted at the void volume and the free MPS at the later eluted fractions (FIG. 3A-3B). Stability upon storage at 4° C. and kinetic of release at 37° C. in 80% plasma was determined by gel exclusion chromatography described above. Then the different column fractions were analyzed as described above, for MPS, phospholipids and Ca in the void volume fraction.
# [9] = cited from earlier work
# [10] = liposomal formulation, after 24 hours, ex vivo; cited from earlier work
molecule,measurement,setting,value
"C[C@H]1C[C@@H]2[C@H]([C@@H](O)C[C@@]3(C)[C@H]2CC[C@]3(O)C(=O)COC(=O)CCC(=O)[O-])[C@@]2(C)C=CC(=O)C=C12.[Na+] [MPS, methylprednisolone sodium hemisuccinate]",% Encapsulation,"[1]; batch 04 May 2005, after dialysis",93.2%
same,% Encapsulation,"[1]; batch 06 Apr. 2005, after dialysis",96.6%
same,% Encapsulation,"[1]; batch 18 Jul. 2004, after dialysis",99.1%
same,CAC (critical association/aggregation concentration),[2]; 26° C.,~5 mM
same,surface activity,[2]; concentrations 0.785-30 mM,surface active at all concentrations used
same,AA score after the second injection at day 23,[3],minimal decline
same,clinical score immediately after the first injection,[3],very slow decline
same,effect on AA,[4],neither the free MPS nor the empty liposome had any effect on AA
same,state of aggregation (turbidity),[5]; acidic pH,aggregates
same,state of aggregation (turbidity),[5]; pH 7.2,non-aggregated water soluble
same,% MPS precipitated,[6]; pH 4.5,97% and 96.6%
same,% MPS precipitated,[6]; pH 6.2,42.8%
same,% MPS precipitated,[6]; pH 6.8,44.1%
same,partition coefficient at different pH points,[7],amphipathic substance
"REMICADE: positive control, Remicade 5 mg/kg (on day 19)",AA score after the second injection at day 23,[3],minimal decline
same,clinical score immediately after the first injection,[3],very slow decline
C[C@H]1C[C@@H]2[C@H]([C@@H](O)C[C@@]3(C)[C@H]2CC[C@]3(O)C(=O)COC(=O)CCC(=O)O)[C@@]2(C)C=CC(=O)C=C12 [Methylprednisolone hemisuccinate],reduction in the GC derivative from initial concentration,[8],less than 20%
triamcinolone acetonide phosphate,pKa,[9],below 2
same,acidic corticosteroid retained by the liposome,[10],more than 75%
